# Assay results taken from US8192962B2, “Processes for detecting toxic substances” (Daikin Industries, Ltd., priority 2001, dated 2012).
# Test system: Genes belonging to other category
# Assay: DNA chip mRNA expression in yeast, genes belonging to other category (Table 9)
# Type: cell-based, Saccharomyces cerevisiae S288C
# In short: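 Cells were grown at 25° C. in YPD, treated at logarithmic phase for 2 h with a chemical at a concentration inhibiting growth but not causing death, and compared with untreated cultures. Labeled cDNA was hybridized to a DNA chip carrying all yeast genes, and the expression ratio was taken from scanner fluorescence.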
smiles,measurement,setting,value
"C[S+](C)[O-] [(15), dimethylsulfoxide]",The level of expressed mRNA in the presence of chemical substance/The level of expressed mRNA in the absence of chemical substance,yeast gene YKL190W,1.4
same,The level of expressed mRNA in the presence of chemical substance/The level of expressed mRNA in the absence of chemical substance,yeast gene YKR014C,1.4
same,The level of expressed mRNA in the presence of chemical substance/The level of expressed mRNA in the absence of chemical substance,yeast gene YLR090W,0.8
same,The level of expressed mRNA in the presence of chemical substance/The level of expressed mRNA in the absence of chemical substance,yeast gene YLR093C,0.9
same,The level of expressed mRNA in the presence of chemical substance/The level of expressed mRNA in the absence of chemical substance,yeast gene YLR118C,0.8
same,The level of expressed mRNA in the presence of chemical substance/The level of expressed mRNA in the absence of chemical substance,yeast gene YLR120C,2.7
same,The level of expressed mRNA in the presence of chemical substance/The level of expressed mRNA in the absence of chemical substance,yeast gene YLR178C,2.3
same,The level of expressed mRNA in the presence of chemical substance/The level of expressed mRNA in the absence of chemical substance,yeast gene YLR250W,2.6
same,The level of expressed mRNA in the presence of chemical substance/The level of expressed mRNA in the absence of chemical substance,yeast gene YLR251W,0.8
same,The level of expressed mRNA in the presence of chemical substance/The level of expressed mRNA in the absence of chemical substance,yeast gene YLR327C,0.8
same,The level of expressed mRNA in the presence of chemical substance/The level of expressed mRNA in the absence of chemical substance,yeast gene YLR356W,2.8
same,The level of expressed mRNA in the presence of chemical substance/The level of expressed mRNA in the absence of chemical substance,yeast gene YLR362W,1.3
same,The level of expressed mRNA in the presence of chemical substance/The level of expressed mRNA in the absence of chemical substance,yeast gene YLR391W,3.9
same,The level of expressed mRNA in the presence of chemical substance/The level of expressed mRNA in the absence of chemical substance,yeast gene YMR004W,1.3
same,The level of expressed mRNA in the presence of chemical substance/The level of expressed mRNA in the absence of chemical substance,yeast gene YMR051C,1.7
same,The level of expressed mRNA in the presence of chemical substance/The level of expressed mRNA in the absence of chemical substance,yeast gene YMR139W,0.9
same,The level of expressed mRNA in the presence of chemical substance/The level of expressed mRNA in the absence of chemical substance,yeast gene YMR219W,1.7
same,The level of expressed mRNA in the presence of chemical substance/The level of expressed mRNA in the absence of chemical substance,yeast gene YMR226C,2.0
same,The level of expressed mRNA in the presence of chemical substance/The level of expressed mRNA in the absence of chemical substance,yeast gene YMR275C,1.7
same,The level of expressed mRNA in the presence of chemical substance/The level of expressed mRNA in the absence of chemical substance,yeast gene YMR276W,3.3
same,The level of expressed mRNA in the presence of chemical substance/The level of expressed mRNA in the absence of chemical substance,yeast gene YNL006W,0.7
same,The level of expressed mRNA in the presence of chemical substance/The level of expressed mRNA in the absence of chemical substance,yeast gene YNL007C,0.8
same,The level of expressed mRNA in the presence of chemical substance/The level of expressed mRNA in the absence of chemical substance,yeast gene YNL015W,1.4
same,The level of expressed mRNA in the presence of chemical substance/The level of expressed mRNA in the absence of chemical substance,yeast gene YNL214W,0.9
same,The level of expressed mRNA in the presence of chemical substance/The level of expressed mRNA in the absence of chemical substance,yeast gene YNL333W,1.0
same,The level of expressed mRNA in the presence of chemical substance/The level of expressed mRNA in the absence of chemical substance,yeast gene YNR010W,0.8
same,The level of expressed mRNA in the presence of chemical substance/The level of expressed mRNA in the absence of chemical substance,yeast gene YNR069C,1.0
same,The level of expressed mRNA in the presence of chemical substance/The level of expressed mRNA in the absence of chemical substance,yeast gene YOL013C,2.7
same,The level of expressed mRNA in the presence of chemical substance/The level of expressed mRNA in the absence of chemical substance,yeast gene YOL164W,1.0
same,The level of expressed mRNA in the presence of chemical substance/The level of expressed mRNA in the absence of chemical substance,yeast gene YOR117W,1.4
same,The level of expressed mRNA in the presence of chemical substance/The level of expressed mRNA in the absence of chemical substance,yeast gene YOR124C,1.3
same,The level of expressed mRNA in the presence of chemical substance/The level of expressed mRNA in the absence of chemical substance,yeast gene YOR132W,1.5
same,The level of expressed mRNA in the presence of chemical substance/The level of expressed mRNA in the absence of chemical substance,yeast gene YOR157C,1.9
same,The level of expressed mRNA in the presence of chemical substance/The level of expressed mRNA in the absence of chemical substance,yeast gene YOR165W,0.8
same,The level of expressed mRNA in the presence of chemical substance/The level of expressed mRNA in the absence of chemical substance,yeast gene YOR181W,3.4
same,The level of expressed mRNA in the presence of chemical substance/The level of expressed mRNA in the absence of chemical substance,yeast gene YOR185C,1.0
same,The level of expressed mRNA in the presence of chemical substance/The level of expressed mRNA in the absence of chemical substance,yeast gene YOR198C,3.8
same,The level of expressed mRNA in the presence of chemical substance/The level of expressed mRNA in the absence of chemical substance,yeast gene YOR259C,1.3
same,The level of expressed mRNA in the presence of chemical substance/The level of expressed mRNA in the absence of chemical substance,yeast gene YOR261C,1.3
same,The level of expressed mRNA in the presence of chemical substance/The level of expressed mRNA in the absence of chemical substance,yeast gene YOR285W,2.0
same,The level of expressed mRNA in the presence of chemical substance/The level of expressed mRNA in the absence of chemical substance,yeast gene YOR288C,1.8
same,The level of expressed mRNA in the presence of chemical substance/The level of expressed mRNA in the absence of chemical substance,yeast gene YOR355W,3.2
same,The level of expressed mRNA in the presence of chemical substance/The level of expressed mRNA in the absence of chemical substance,yeast gene YPL018W,0.9
same,The level of expressed mRNA in the presence of chemical substance/The level of expressed mRNA in the absence of chemical substance,yeast gene YPL089C,2.6
same,The level of expressed mRNA in the presence of chemical substance/The level of expressed mRNA in the absence of chemical substance,yeast gene YPL109C,1.3
same,The level of expressed mRNA in the presence of chemical substance/The level of expressed mRNA in the absence of chemical substance,yeast gene YPL149W,0.8
same,The level of expressed mRNA in the presence of chemical substance/The level of expressed mRNA in the absence of chemical substance,yeast gene YPL154C,4.0
same,The level of expressed mRNA in the presence of chemical substance/The level of expressed mRNA in the absence of chemical substance,yeast gene YPR073C,0.8
same,The level of expressed mRNA in the presence of chemical substance/The level of expressed mRNA in the absence of chemical substance,yeast gene YPR103W,1.0
same,The level of expressed mRNA in the presence of chemical substance/The level of expressed mRNA in the absence of chemical substance,yeast gene YPR108W,1.3
